Assay results: paper PMC9276671, “A first-in-human Phase I dose-escalation trial of the novel therapeutic peptide, ALM201, demonstrates a favourable safety profile in unselected patients with ovarian cancer and other advanced solid tumours” (British Journal of Cancer, 2022)
No end group written: not given here.

Assay: Plasma pharmacokinetics of ALM201 in Phase I patients (validated LC-MS/MS, Phoenix WinNonlin)
Details: human, plasma, sc; for level at 3 h: day 1 cycle 1, 3 h after dosing; for Tmax: median; for Tmax / AUC(0-t) / Cmax: plasma LC-MS/MS; for AUC(0-t): AUC0-t; for AUC(0-t) / Cmax: Gmean (CV); for level at 0.25 h: day 1 cycle 1, 0.25 h after dosing; for level at 0.75 h: day 1 cycle 1, 0.75 h after dosing; for level at 4 h: day 1 cycle 1, 4 h after dosing
[1] = 40 mg, 40 mg SC, day 1 cycle 1, n = 1
[2] = 40 mg, 40 mg SC, day 3 cycle 1, n = 1
[3] = 40 mg, 40 mg SC, day 18 cycle 1, n = 1
[4] = 40 mg, 40 mg SC, day 18 cycle 2, n = 1
[5] = 40 mg, Plasma concentration, geometric mean (CV%), 40 mg SC, n = 1, LC-MS/MS
[6] = 80 mg, 80 mg SC, day 1 cycle 1, n = 3
[7] = 80 mg, 80 mg SC, day 3 cycle 1, n = 3
[8] = 80 mg, 80 mg SC, day 18 cycle 1, n = 2, CV not calculated
[9] = 80 mg, 80 mg SC, day 18 cycle 2, n = 1
[10] = 80 mg, Plasma concentration, geometric mean (CV%), 80 mg SC, n = 3, LC-MS/MS

IRQQPRDPPTETLELEVSPDPAS [ALM201]
level at 1.5 h (20 mg, Plasma concentration, geometric mean (CV%), 20 mg SC, day 1 cycle 1, 1.5 h after dosing, n = 1, LC-MS/MS): 542 ng/mL | level at 2 h (20 mg, Plasma concentration, geometric mean (CV%), 20 mg SC, day 1 cycle 1, 2 h after dosing, n = 1, LC-MS/MS): 417 ng/mL | level at 3 h (20 mg, Plasma concentration, geometric mean (CV%), 20 mg SC, n = 1, LC-MS/MS): 224 ng/mL | level at 0.5 h (20 mg, Plasma concentration, geometric mean (CV%), 20 mg SC, day 3 cycle 1, 0.5 h after dosing, n = 1, LC-MS/MS): 210 ng/mL | level at 1 h (20 mg, Plasma concentration, geometric mean (CV%), 20 mg SC, day 3 cycle 1, 1 h after dosing, n = 1, LC-MS/MS): 614 ng/mL | level at 1.5 h (20 mg, Plasma concentration, geometric mean (CV%), 20 mg SC, day 3 cycle 1, 1.5 h after dosing, n = 1, LC-MS/MS): 532 ng/mL | level at 2 h (20 mg, Plasma concentration, geometric mean (CV%), 20 mg SC, day 3 cycle 1, 2 h after dosing, n = 1, LC-MS/MS): 377 ng/mL | level at 3.5 h (20 mg, Plasma concentration, geometric mean (CV%), 20 mg SC, day 3 cycle 1, 3.5 h after dosing, n = 1, LC-MS/MS): 134 ng/mL | level at 0.5 h (20 mg, Plasma concentration, geometric mean (CV%), 20 mg SC, day 18 cycle 1, 0.5 h after dosing, n = 1, LC-MS/MS): 194 ng/mL | level at 1 h (20 mg, Plasma concentration, geometric mean (CV%), 20 mg SC, day 18 cycle 1, 1 h after dosing, n = 1, LC-MS/MS): 319 ng/mL | level at 1.5 h (20 mg, Plasma concentration, geometric mean (CV%), 20 mg SC, day 18 cycle 1, 1.5 h after dosing, n = 1, LC-MS/MS): 314 ng/mL | level at 2 h (20 mg, Plasma concentration, geometric mean (CV%), 20 mg SC, day 18 cycle 1, 2 h after dosing, n = 1, LC-MS/MS): 224 ng/mL | level at 3.5 h (20 mg, Plasma concentration, geometric mean (CV%), 20 mg SC, day 18 cycle 1, 3.5 h after dosing, n = 1, LC-MS/MS): 113 ng/mL | level at 0.5 h (20 mg, Plasma concentration, geometric mean (CV%), 20 mg SC, day 18 cycle 2, 0.5 h after dosing, n = 1, LC-MS/MS): 279 ng/mL | level at 1 h (20 mg, Plasma concentration, geometric mean (CV%), 20 mg SC, day 18 cycle 2, 1 h after dosing, n = 1, LC-MS/MS): 394 ng/mL | level at 1.5 h (20 mg, Plasma concentration, geometric mean (CV%), 20 mg SC, day 18 cycle 2, 1.5 h after dosing, n = 1, LC-MS/MS): 352 ng/mL | level at 2 h (20 mg, Plasma concentration, geometric mean (CV%), 20 mg SC, day 18 cycle 2, 2 h after dosing, n = 1, LC-MS/MS): 386 ng/mL | level at 3.5 h (20 mg, Plasma concentration, geometric mean (CV%), 20 mg SC, day 18 cycle 2, 3.5 h after dosing, n = 1, LC-MS/MS): 162 ng/mL | Tmax (20 mg, 20 mg SC, day 1 cycle 1, n = 1): 1.5 h | Tmax (20 mg, 20 mg SC, day 3 cycle 1, n = 1): 1 h | Tmax (20 mg, 20 mg SC, day 18 cycle 1, n = 1): 1.02 h | AUC(0-t) [1]: 1920 ng·h/mL | AUC(0-t) [2]: 898 ng·h/mL | AUC(0-t) [3]: 1840 ng·h/mL | AUC(0-t) [4]: 1950 ng·h/mL | Cmax [1]: 592 ng/mL | Cmax [2]: 759 ng/mL | Cmax [3]: 405 ng/mL | level at 0.25 h [5]: 316 ng/mL | level at 0.75 h [5]: 556 ng/mL | level at 1.5 h (40 mg, Plasma concentration, geometric mean (CV%), 40 mg SC, day 1 cycle 1, 1.5 h after dosing, n = 1, LC-MS/MS): 592 ng/mL | level at 2 h (40 mg, Plasma concentration, geometric mean (CV%), 40 mg SC, day 1 cycle 1, 2 h after dosing, n = 1, LC-MS/MS): 540 ng/mL | level at 3 h [5]: 368 ng/mL | level at 4 h [5]: 223 ng/mL | level at 5 h (40 mg, Plasma concentration, geometric mean (CV%), 40 mg SC, day 1 cycle 1, 5 h after dosing, n = 1, LC-MS/MS): 158 ng/mL | level at 0.5 h (40 mg, Plasma concentration, geometric mean (CV%), 40 mg SC, day 3 cycle 1, 0.5 h after dosing, n = 1, LC-MS/MS): 264 ng/mL | level at 1 h (40 mg, Plasma concentration, geometric mean (CV%), 40 mg SC, day 3 cycle 1, 1 h after dosing, n = 1, LC-MS/MS): 444 ng/mL | level at 1.5 h (40 mg, Plasma concentration, geometric mean (CV%), 40 mg SC, day 3 cycle 1, 1.5 h after dosing, n = 1, LC-MS/MS): 759 ng/mL | level at 2 h (40 mg, Plasma concentration, geometric mean (CV%), 40 mg SC, day 3 cycle 1, 2 h after dosing, n = 1, LC-MS/MS): 656 ng/mL | level at 0.5 h (40 mg, Plasma concentration, geometric mean (CV%), 40 mg SC, day 18 cycle 1, 0.5 h after dosing, n = 1, LC-MS/MS): 348 ng/mL | level at 1 h (40 mg, Plasma concentration, geometric mean (CV%), 40 mg SC, day 18 cycle 1, 1 h after dosing, n = 1, LC-MS/MS): 405 ng/mL | level at 1.5 h (40 mg, Plasma concentration, geometric mean (CV%), 40 mg SC, day 18 cycle 1, 1.5 h after dosing, n = 1, LC-MS/MS): 397 ng/mL | level at 2 h (40 mg, Plasma concentration, geometric mean (CV%), 40 mg SC, day 18 cycle 1, 2 h after dosing, n = 1, LC-MS/MS): 368 ng/mL | level at 3.5 h (40 mg, Plasma concentration, geometric mean (CV%), 40 mg SC, day 18 cycle 1, 3.5 h after dosing, n = 1, LC-MS/MS): 377 ng/mL | level at 5 h (40 mg, Plasma concentration, geometric mean (CV%), 40 mg SC, day 18 cycle 1, 5 h after dosing, n = 1, LC-MS/MS): 113 ng/mL | level at 0.5 h (40 mg, Plasma concentration, geometric mean (CV%), 40 mg SC, day 18 cycle 2, 0.5 h after dosing, n = 1, LC-MS/MS): 384 ng/mL | level at 1 h (40 mg, Plasma concentration, geometric mean (CV%), 40 mg SC, day 18 cycle 2, 1 h after dosing, n = 1, LC-MS/MS): 583 ng/mL | level at 1.5 h (40 mg, Plasma concentration, geometric mean (CV%), 40 mg SC, day 18 cycle 2, 1.5 h after dosing, n = 1, LC-MS/MS): 565 ng/mL | level at 2 h (40 mg, Plasma concentration, geometric mean (CV%), 40 mg SC, day 18 cycle 2, 2 h after dosing, n = 1, LC-MS/MS): 571 ng/mL | level at 3.5 h (40 mg, Plasma concentration, geometric mean (CV%), 40 mg SC, day 18 cycle 2, 3.5 h after dosing, n = 1, LC-MS/MS): 347 ng/mL | Tmax [1]: 1.63 h | Tmax [2]: 1.5 h | Tmax [3]: 1 h | Tmax [4]: 1.03 h | AUC(0-t) [6]: 3380 ng·h/mL | AUC(0-t) [7]: 2970 ng·h/mL | AUC(0-t) [8]: 3500 ng·h/mL | AUC(0-t) [9]: 3230 ng·h/mL | Cmax [6]: 835 ng/mL | Cmax [7]: 861 ng/mL | Cmax [8]: 1090 ng/mL | Cmax [9]: 849 ng/mL | level at 0.25 h [10]: 292 ng/mL | level at 0.75 h [10]: 700 ng/mL | level at 1.5 h (80 mg, Plasma concentration, geometric mean (CV%), 80 mg SC, day 1 cycle 1, 1.5 h after dosing, n = 3, LC-MS/MS): 800 ng/mL | level at 2 h (80 mg, Plasma concentration, geometric mean (CV%), 80 mg SC, day 1 cycle 1, 2 h after dosing, n = 3, LC-MS/MS): 727 ng/mL | level at 3 h [10]: 689 ng/mL | level at 4 h [10]: 556 ng/mL | level at 5 h (80 mg, Plasma concentration, geometric mean (CV%), 80 mg SC, day 1 cycle 1, 5 h after dosing, n = 3, LC-MS/MS): 359 ng/mL | level at 6 h (80 mg, Plasma concentration, geometric mean (CV%), 80 mg SC, day 1 cycle 1, 6 h after dosing, n = 3, LC-MS/MS): 248 ng/mL | level at 0.5 h (80 mg, Plasma concentration, geometric mean (CV%), 80 mg SC, day 3 cycle 1, 0.5 h after dosing, n = 3, LC-MS/MS): 578 ng/mL | level at 1 h (80 mg, Plasma concentration, geometric mean (CV%), 80 mg SC, day 3 cycle 1, 1 h after dosing, n = 3, LC-MS/MS): 684 ng/mL | level at 1.5 h (80 mg, Plasma concentration, geometric mean (CV%), 80 mg SC, day 3 cycle 1, 1.5 h after dosing, n = 3, LC-MS/MS): 827 ng/mL | level at 2 h (80 mg, Plasma concentration, geometric mean (CV%), 80 mg SC, day 3 cycle 1, 2 h after dosing, n = 3, LC-MS/MS): 826 ng/mL | level at 3.5 h (80 mg, Plasma concentration, geometric mean (CV%), 80 mg SC, day 3 cycle 1, 3.5 h after dosing, n = 3, LC-MS/MS): 524 ng/mL | level at 5 h (80 mg, Plasma concentration, geometric mean (CV%), 80 mg SC, day 3 cycle 1, 5 h after dosing, n = 3, LC-MS/MS): 325 ng/mL | level at 0.5 h (80 mg, Plasma concentration, geometric mean (CV%), 80 mg SC, day 18 cycle 1, 0.5 h after dosing, n = 2, LC-MS/MS): 769 ng/mL | level at 1 h (80 mg, Plasma concentration, geometric mean (CV%), 80 mg SC, day 18 cycle 1, 1 h after dosing, n = 2, LC-MS/MS): 946 ng/mL | level at 1.5 h (80 mg, Plasma concentration, geometric mean (CV%), 80 mg SC, day 18 cycle 1, 1.5 h after dosing, n = 2, LC-MS/MS): 884 ng/mL | level at 2 h (80 mg, Plasma concentration, geometric mean (CV%), 80 mg SC, day 18 cycle 1, 2 h after dosing, n = 2, LC-MS/MS): 1060 ng/mL | level at 3.5 h (80 mg, Plasma concentration, geometric mean (CV%), 80 mg SC, day 18 cycle 1, 3.5 h after dosing, n = 2, LC-MS/MS): 545 ng/mL | level at 5 h (80 mg, Plasma concentration, geometric mean (CV%), 80 mg SC, day 18 cycle 1, 5 h after dosing, n = 2, LC-MS/MS): 407 ng/mL | level at 0.5 h (80 mg, Plasma concentration, geometric mean (CV%), 80 mg SC, day 18 cycle 2, 0.5 h after dosing, n = 1, LC-MS/MS): 394 ng/mL | level at 1 h (80 mg, Plasma concentration, geometric mean (CV%), 80 mg SC, day 18 cycle 2, 1 h after dosing, n = 1, LC-MS/MS): 808 ng/mL | level at 1.5 h (80 mg, Plasma concentration, geometric mean (CV%), 80 mg SC, day 18 cycle 2, 1.5 h after dosing, n = 1, LC-MS/MS): 659 ng/mL | level at 2 h (80 mg, Plasma concentration, geometric mean (CV%), 80 mg SC, day 18 cycle 2, 2 h after dosing, n = 1, LC-MS/MS): 639 ng/mL | level at 3.5 h (80 mg, Plasma concentration, geometric mean (CV%), 80 mg SC, day 18 cycle 2, 3.5 h after dosing, n = 1, LC-MS/MS): 849 ng/mL | Tmax [6]: 1.53 h | Tmax (80 mg, 80 mg SC, day 18 cycle 1, n = 2): 1.23 h
